Measurements taken from publication PMC5933747 (PLoS ONE, 2018).
Read-outs that look alike come from different tables or passages of the source.

Legend:
Type in all cases: cell-based
human NaV1.7 = human NaV1.7 (Homo sapiens, UniProt Q15858); assay: IonWorks Quattro (IWQ) electrophysiology, human NaV1.7
human NaV1.4 = human NaV1.4 (Homo sapiens, UniProt P35499); assay: IonWorks Quattro (IWQ) electrophysiology, human NaV1.4
human NaV1.5 = human NaV1.5 (Homo sapiens, UniProt Q14524); assay: IonWorks Quattro (IWQ) electrophysiology, human NaV1.5
human NaV1.5, sequence (Q14524 whole entry): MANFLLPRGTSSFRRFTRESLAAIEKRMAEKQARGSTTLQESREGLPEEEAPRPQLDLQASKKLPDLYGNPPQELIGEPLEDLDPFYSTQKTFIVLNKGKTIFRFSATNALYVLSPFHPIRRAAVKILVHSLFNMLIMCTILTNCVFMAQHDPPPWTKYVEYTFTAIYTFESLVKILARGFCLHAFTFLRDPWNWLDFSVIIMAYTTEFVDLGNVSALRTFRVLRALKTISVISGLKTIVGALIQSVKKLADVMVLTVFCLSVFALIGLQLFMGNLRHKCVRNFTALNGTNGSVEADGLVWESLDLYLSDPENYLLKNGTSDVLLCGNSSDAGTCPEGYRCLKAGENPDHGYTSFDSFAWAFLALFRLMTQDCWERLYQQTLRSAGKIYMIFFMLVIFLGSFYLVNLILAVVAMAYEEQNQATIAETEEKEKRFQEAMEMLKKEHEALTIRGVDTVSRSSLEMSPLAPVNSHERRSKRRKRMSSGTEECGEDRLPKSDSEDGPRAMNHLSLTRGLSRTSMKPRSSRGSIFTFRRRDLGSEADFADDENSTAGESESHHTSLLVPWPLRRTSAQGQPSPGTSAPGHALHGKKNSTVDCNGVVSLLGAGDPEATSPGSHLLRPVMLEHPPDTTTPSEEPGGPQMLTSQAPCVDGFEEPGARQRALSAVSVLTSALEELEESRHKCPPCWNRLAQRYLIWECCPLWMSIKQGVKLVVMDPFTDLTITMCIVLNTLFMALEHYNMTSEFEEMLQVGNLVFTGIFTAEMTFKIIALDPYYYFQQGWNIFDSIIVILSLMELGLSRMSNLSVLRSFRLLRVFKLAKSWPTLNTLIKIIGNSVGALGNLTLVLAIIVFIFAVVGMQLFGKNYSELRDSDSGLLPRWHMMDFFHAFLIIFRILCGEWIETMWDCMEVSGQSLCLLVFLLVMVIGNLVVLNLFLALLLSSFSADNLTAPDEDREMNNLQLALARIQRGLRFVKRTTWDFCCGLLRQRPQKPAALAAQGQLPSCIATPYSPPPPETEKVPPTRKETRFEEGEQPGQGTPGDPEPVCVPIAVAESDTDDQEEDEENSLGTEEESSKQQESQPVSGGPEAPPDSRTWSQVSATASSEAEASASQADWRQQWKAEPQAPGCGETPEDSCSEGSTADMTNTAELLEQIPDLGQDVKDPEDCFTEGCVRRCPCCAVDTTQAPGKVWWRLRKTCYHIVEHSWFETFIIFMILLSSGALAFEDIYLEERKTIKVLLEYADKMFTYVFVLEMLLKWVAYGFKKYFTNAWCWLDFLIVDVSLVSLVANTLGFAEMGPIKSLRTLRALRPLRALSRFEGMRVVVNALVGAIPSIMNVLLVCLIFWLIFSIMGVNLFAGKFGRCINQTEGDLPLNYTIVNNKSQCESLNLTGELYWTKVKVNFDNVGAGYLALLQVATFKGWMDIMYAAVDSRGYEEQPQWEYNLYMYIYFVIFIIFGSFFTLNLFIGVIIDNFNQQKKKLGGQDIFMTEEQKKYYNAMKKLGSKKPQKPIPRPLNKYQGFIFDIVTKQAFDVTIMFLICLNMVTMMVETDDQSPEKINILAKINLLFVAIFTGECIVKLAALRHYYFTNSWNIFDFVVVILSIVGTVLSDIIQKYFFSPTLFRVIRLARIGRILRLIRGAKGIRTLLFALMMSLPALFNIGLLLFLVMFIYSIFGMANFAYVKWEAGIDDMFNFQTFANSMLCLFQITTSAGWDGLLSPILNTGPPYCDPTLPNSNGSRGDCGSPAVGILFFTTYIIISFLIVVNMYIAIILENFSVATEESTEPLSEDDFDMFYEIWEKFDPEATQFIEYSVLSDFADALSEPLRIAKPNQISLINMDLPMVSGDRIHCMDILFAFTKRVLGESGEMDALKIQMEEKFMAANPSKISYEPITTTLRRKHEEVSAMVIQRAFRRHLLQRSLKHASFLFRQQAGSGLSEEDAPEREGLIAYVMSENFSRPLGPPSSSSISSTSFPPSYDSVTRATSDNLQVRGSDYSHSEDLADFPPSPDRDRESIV

[1] = read-out: Glu mutant IWQ IC50 NaV1.7
[2] = read-out: Glu mutant IWQ IC50 NaV1.4
[3] = read-out: Glu mutant IWQ IC50 NaV1.5
[4] = read-out: Ala mutant IWQ IC50 NaV1.7
[5] = read-out: Ala mutant IWQ IC50 NaV1.4
[6] = read-out: Ala mutant IWQ IC50 NaV1.5

human NaV1.4, sequence (P35499 whole entry): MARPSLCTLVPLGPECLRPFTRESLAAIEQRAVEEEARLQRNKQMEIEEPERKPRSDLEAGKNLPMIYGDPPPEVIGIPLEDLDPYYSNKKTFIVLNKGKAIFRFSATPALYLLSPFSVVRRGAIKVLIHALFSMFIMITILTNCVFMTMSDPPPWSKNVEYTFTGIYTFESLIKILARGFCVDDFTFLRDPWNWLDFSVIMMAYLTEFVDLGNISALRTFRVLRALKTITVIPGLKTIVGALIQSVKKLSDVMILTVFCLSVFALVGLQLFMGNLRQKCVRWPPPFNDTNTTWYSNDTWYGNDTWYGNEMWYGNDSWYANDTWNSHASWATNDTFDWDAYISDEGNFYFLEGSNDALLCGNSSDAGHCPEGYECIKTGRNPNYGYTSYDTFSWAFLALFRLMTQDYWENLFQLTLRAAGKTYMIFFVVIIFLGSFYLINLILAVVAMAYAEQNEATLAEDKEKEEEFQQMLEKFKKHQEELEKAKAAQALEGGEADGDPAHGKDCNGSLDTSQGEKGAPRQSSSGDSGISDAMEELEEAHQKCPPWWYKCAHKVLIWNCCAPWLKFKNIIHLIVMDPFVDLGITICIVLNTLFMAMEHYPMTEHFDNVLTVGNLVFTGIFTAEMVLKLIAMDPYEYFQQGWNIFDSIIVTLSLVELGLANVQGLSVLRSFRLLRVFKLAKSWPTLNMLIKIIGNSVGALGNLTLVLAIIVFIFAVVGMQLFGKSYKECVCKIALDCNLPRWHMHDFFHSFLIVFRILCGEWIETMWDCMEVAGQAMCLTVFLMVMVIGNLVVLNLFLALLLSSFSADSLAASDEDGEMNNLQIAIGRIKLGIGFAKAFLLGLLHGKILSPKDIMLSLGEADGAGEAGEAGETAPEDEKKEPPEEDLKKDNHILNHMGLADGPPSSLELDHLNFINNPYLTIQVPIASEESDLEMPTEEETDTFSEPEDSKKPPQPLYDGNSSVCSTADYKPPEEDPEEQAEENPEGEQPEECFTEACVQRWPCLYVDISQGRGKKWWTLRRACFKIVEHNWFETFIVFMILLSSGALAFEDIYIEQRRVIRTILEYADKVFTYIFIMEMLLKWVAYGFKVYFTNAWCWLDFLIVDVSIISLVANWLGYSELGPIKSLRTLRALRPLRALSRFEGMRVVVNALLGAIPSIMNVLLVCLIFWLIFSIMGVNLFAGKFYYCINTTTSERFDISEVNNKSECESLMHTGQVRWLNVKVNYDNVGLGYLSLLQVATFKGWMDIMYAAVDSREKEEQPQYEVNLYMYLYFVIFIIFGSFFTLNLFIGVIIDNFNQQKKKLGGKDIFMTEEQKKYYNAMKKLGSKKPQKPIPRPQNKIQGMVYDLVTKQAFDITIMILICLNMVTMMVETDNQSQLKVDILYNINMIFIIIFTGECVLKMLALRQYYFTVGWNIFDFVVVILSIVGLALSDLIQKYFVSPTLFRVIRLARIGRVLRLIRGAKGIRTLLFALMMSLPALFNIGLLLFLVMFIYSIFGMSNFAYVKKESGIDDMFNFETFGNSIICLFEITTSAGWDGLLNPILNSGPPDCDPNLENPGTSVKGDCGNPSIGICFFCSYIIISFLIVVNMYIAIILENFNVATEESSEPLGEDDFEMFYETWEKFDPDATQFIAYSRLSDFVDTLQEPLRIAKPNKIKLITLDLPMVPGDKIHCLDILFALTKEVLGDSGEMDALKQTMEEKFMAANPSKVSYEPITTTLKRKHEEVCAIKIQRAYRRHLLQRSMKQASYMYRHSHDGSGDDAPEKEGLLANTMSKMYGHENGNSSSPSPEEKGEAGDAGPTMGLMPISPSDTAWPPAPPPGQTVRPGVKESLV

Row | SMILES | IC50 (human NaV1.7; [1]) [µM] | IC50 (human NaV1.4; [2]) [µM] | IC50 (human NaV1.5; [3]) [µM] | IC50 (human NaV1.7; [4]) [µM] | IC50 (human NaV1.4; [5]) [µM] | IC50 (human NaV1.5; [6]) [µM] | IC50 (human NaV1.5; human, read-out: Glu mutant IWQ IC50 NaV1.5) [µM]
1 | CC[C@H](C)[C@H](NC(=O)[C@@H](NC(=O)[C@H](CCCCN)NC(=O)[C@H](CCCNC(=N)N)NC(=O)[C@@H]1CSSC[C@@H]2NC(=O)[C@H](C)NC(=O)[C@H](CCCNC(=N)N)NC(=O)[C@H](CCCCN)NC(=O)[C@H](CO)NC(=O)[C@H](CC(=O)O)NC(=O)[C@@H]3CSSC[C@H](NC(=O)[C@H](CCCNC(=N)N)NC(=O)[C@H](CC(C)C)NC(=O)CNC(=O)[C@H](CCC(=O)O)NC(=O)[C@H](CSSC[C@H](NC(=O)[C@@H](N)Cc4ccc(O)cc4)C(=O)N[C@@H](CCC(N)=O)C(=O)N[C@@H](CCCCN)C(=O)N[C@@H](Cc4c[nH]c5ccccc45)C(=O)N[C@@H](CCC(=O)O)C(=O)N[C@@H](Cc4c[nH]c5ccccc45)C(=O)N[C@@H]([C@@H](C)O)C(=O)N3)NC2=O)C(=O)N[C@@H](CCCCN)C(=O)N[C@@H](CC(C)C)C(=O)N[C@@H](Cc2c[nH]c3ccccc23)C(=O)N1)[C@@H](C)CC)C(N)=O [M6 Glu mutant] | > 10 | > 10 | > 10 | – | – | – | –
2 | CC[C@H](C)[C@H](NC(=O)[C@@H](NC(=O)[C@H](CCCCN)NC(=O)[C@H](CCCNC(=N)N)NC(=O)[C@@H]1CSSC[C@@H]2NC(=O)[C@H](C)NC(=O)[C@H](CCCNC(=N)N)NC(=O)[C@H](CCCCN)NC(=O)[C@H](CO)NC(=O)[C@H](CC(=O)O)NC(=O)[C@@H]3CSSC[C@H](NC(=O)[C@H](CCCNC(=N)N)NC(=O)[C@H](CC(C)C)NC(=O)CNC(=O)[C@H](CCC(=O)O)NC(=O)[C@H](CSSC[C@H](NC(=O)[C@@H](N)Cc4ccc(O)cc4)C(=O)N[C@@H](C)C(=O)N[C@@H](CCCCN)C(=O)N[C@@H](Cc4c[nH]c5ccccc45)C(=O)N[C@@H](CCSC)C(=O)N[C@@H](Cc4c[nH]c5ccccc45)C(=O)N[C@@H]([C@@H](C)O)C(=O)N3)NC2=O)C(=O)N[C@@H](CCCCN)C(=O)N[C@@H](CC(C)C)C(=O)N[C@@H](Cc2c[nH]c3ccccc23)C(=O)N1)[C@@H](C)CC)C(N)=O [Q3 Ala mutant] | – | – | – | 0.378 | 1.15 | > 10 | –
3 | CC[C@H](C)[C@H](NC(=O)[C@@H](NC(=O)[C@H](CCCCN)NC(=O)[C@H](CCCNC(=N)N)NC(=O)[C@@H]1CSSC[C@@H]2NC(=O)[C@H](C)NC(=O)[C@H](CCCNC(=N)N)NC(=O)[C@H](CCCCN)NC(=O)[C@H](CO)NC(=O)[C@H](CC(=O)O)NC(=O)[C@@H]3CSSC[C@H](NC(=O)[C@H](CCCNC(=N)N)NC(=O)[C@H](CC(C)C)NC(=O)CNC(=O)[C@H](CCC(=O)O)NC(=O)[C@H](CSSC[C@H](NC(=O)[C@@H](N)Cc4ccc(O)cc4)C(=O)N[C@@H](CCC(=O)O)C(=O)N[C@@H](CCCCN)C(=O)N[C@@H](Cc4c[nH]c5ccccc45)C(=O)N[C@@H](CCSC)C(=O)N[C@@H](Cc4c[nH]c5ccccc45)C(=O)N[C@@H]([C@@H](C)O)C(=O)N3)NC2=O)C(=O)N[C@@H](CCCCN)C(=O)N[C@@H](CC(C)C)C(=O)N[C@@H](Cc2c[nH]c3ccccc23)C(=O)N1)[C@@H](C)CC)C(N)=O [Q3 Glu mutant] | 0.333 | 1.83 | > 10 | – | – | – | –
4 | CC[C@H](C)[C@H](NC(=O)[C@@H](NC(=O)[C@H](CCCCN)NC(=O)[C@H](CCCNC(=N)N)NC(=O)[C@@H]1CSSC[C@@H]2NC(=O)[C@H](C)NC(=O)[C@H](CCC(=O)O)NC(=O)[C@H](CCCCN)NC(=O)[C@H](CO)NC(=O)[C@H](CC(=O)O)NC(=O)[C@@H]3CSSC[C@H](NC(=O)[C@H](CCCNC(=N)N)NC(=O)[C@H](CC(C)C)NC(=O)CNC(=O)[C@H](CCC(=O)O)NC(=O)[C@H](CSSC[C@H](NC(=O)[C@@H](N)Cc4ccc(O)cc4)C(=O)N[C@@H](CCC(N)=O)C(=O)N[C@@H](CCCCN)C(=O)N[C@@H](Cc4c[nH]c5ccccc45)C(=O)N[C@@H](CCSC)C(=O)N[C@@H](Cc4c[nH]c5ccccc45)C(=O)N[C@@H]([C@@H](C)O)C(=O)N3)NC2=O)C(=O)N[C@@H](CCCCN)C(=O)N[C@@H](CC(C)C)C(=O)N[C@@H](Cc2c[nH]c3ccccc23)C(=O)N1)[C@@H](C)CC)C(N)=O [R13 Glu mutant] | 4.57 | > 10 | > 10 | – | – | – | –
5 | CC[C@H](C)[C@H](NC(=O)[C@@H](NC(=O)[C@H](CCCCN)NC(=O)[C@H](CCCNC(=N)N)NC(=O)[C@@H]1CSSC[C@@H]2NC(=O)[C@H](C)NC(=O)[C@H](CCCNC(=N)N)NC(=O)[C@H](CCCCN)NC(=O)[C@H](CO)NC(=O)[C@H](CC(=O)O)NC(=O)[C@@H]3CSSC[C@H](NC(=O)[C@H](CCC(=O)O)NC(=O)[C@H](CC(C)C)NC(=O)CNC(=O)[C@H](CCC(=O)O)NC(=O)[C@H](CSSC[C@H](NC(=O)[C@@H](N)Cc4ccc(O)cc4)C(=O)N[C@@H](CCC(N)=O)C(=O)N[C@@H](CCCCN)C(=O)N[C@@H](Cc4c[nH]c5ccccc45)C(=O)N[C@@H](CCSC)C(=O)N[C@@H](Cc4c[nH]c5ccccc45)C(=O)N[C@@H]([C@@H](C)O)C(=O)N3)NC2=O)C(=O)N[C@@H](CCCCN)C(=O)N[C@@H](CC(C)C)C(=O)N[C@@H](Cc2c[nH]c3ccccc23)C(=O)N1)[C@@H](C)CC)C(N)=O [R20 Glu mutant] | 0.217 | 1.82 | – | – | – | – | > 5
6 | CC[C@H](C)[C@H](NC(=O)[C@@H](NC(=O)[C@H](CCCCN)NC(=O)[C@H](C)NC(=O)[C@@H]1CSSC[C@@H]2NC(=O)[C@H](C)NC(=O)[C@H](CCCNC(=N)N)NC(=O)[C@H](CCCCN)NC(=O)[C@H](CO)NC(=O)[C@H](CC(=O)O)NC(=O)[C@@H]3CSSC[C@H](NC(=O)[C@H](CCCNC(=N)N)NC(=O)[C@H](CC(C)C)NC(=O)CNC(=O)[C@H](CCC(=O)O)NC(=O)[C@H](CSSC[C@H](NC(=O)[C@@H](N)Cc4ccc(O)cc4)C(=O)N[C@@H](CCC(N)=O)C(=O)N[C@@H](CCCCN)C(=O)N[C@@H](Cc4c[nH]c5ccccc45)C(=O)N[C@@H](CCSC)C(=O)N[C@@H](Cc4c[nH]c5ccccc45)C(=O)N[C@@H]([C@@H](C)O)C(=O)N3)NC2=O)C(=O)N[C@@H](CCCCN)C(=O)N[C@@H](CC(C)C)C(=O)N[C@@H](Cc2c[nH]c3ccccc23)C(=O)N1)[C@@H](C)CC)C(N)=O [R26 Ala mutant] | – | – | – | 2.42 | > 10 | > 10 | –
7 | CC[C@H](C)[C@H](NC(=O)[C@@H](NC(=O)[C@H](CCCCN)NC(=O)[C@H](CCC(=O)O)NC(=O)[C@@H]1CSSC[C@@H]2NC(=O)[C@H](C)NC(=O)[C@H](CCCNC(=N)N)NC(=O)[C@H](CCCCN)NC(=O)[C@H](CO)NC(=O)[C@H](CC(=O)O)NC(=O)[C@@H]3CSSC[C@H](NC(=O)[C@H](CCCNC(=N)N)NC(=O)[C@H](CC(C)C)NC(=O)CNC(=O)[C@H](CCC(=O)O)NC(=O)[C@H](CSSC[C@H](NC(=O)[C@@H](N)Cc4ccc(O)cc4)C(=O)N[C@@H](CCC(N)=O)C(=O)N[C@@H](CCCCN)C(=O)N[C@@H](Cc4c[nH]c5ccccc45)C(=O)N[C@@H](CCSC)C(=O)N[C@@H](Cc4c[nH]c5ccccc45)C(=O)N[C@@H]([C@@H](C)O)C(=O)N3)NC2=O)C(=O)N[C@@H](CCCCN)C(=O)N[C@@H](CC(C)C)C(=O)N[C@@H](Cc2c[nH]c3ccccc23)C(=O)N1)[C@@H](C)CC)C(N)=O [R26 Glu mutant] | > 10 | > 10 | > 10 | – | – | – | –
